Here are results for 1 molecule from patent US11376266B2, “Antitumor agent” (KEIO UNIVERSITY, priority 2016, dated 2022).

For series [1], the system named is human colon cancer HCT-116 cells. Description: Antitumor effect of sulfasalazine in mice bearing subcutaneous HCT-116 tumors. Conditions: 250 mg/kg intraperitoneally once per day; Days 14 and 28 after transplantation; versus saline control; FIG. 1. It counts as in vivo, KSN nude mice. As to the method:
The human colon cancer HCT-116 cells that proliferate in a CD44v-dependent manner were administered subcutaneously to KSN nude mice to form tumors. The cells were transplanted into 10 mice. 250 mg/kg of sulfasalazine or 100 μl of saline was injected to each of groups of 5 mice intraperitoneally once per day. Diameter of tumors was measured on Days 14 and 28 after transplantation and their weights were calculated based on the diameters and compared between the two groups.

Another series deals with T98G cell line. Conditions: 0 to 1250 μM calculated as sulfasalazine, two days, FIG. 6.
A short description of series [2]: Solubility test in pure water and saline (UV absorption at 238 nm). It counts as physicochemical. As to conditions: thermodynamic from solid, room temperature, PEGylated values calculated as sulfasalazine. On the procedure: The aqueous solutions thus obtained were centrifuged at 8000 rpm for 30 minutes at room temperature, and 50 μL of each supernatant was taken. One microliter of 5N NaOH solution was added to the supernatant and UV absorption (at 238 nm) was measured for the resulting solution, thereby sulfasalazine concentration in the solution (solubility in pure water and saline) was calculated.

SMILES strings stand for the structures. In brackets after ≈: the same amount, converted by molar mass. Read-outs that look alike come from different tables or passages of the source.

Method for T98G cell line: Using the same medium as in (3), the T98G cell line was seeded onto 96-well plates at 3,000 cells/well. On the next day, sulfasalazine and the type-A PEGylated sulfasalazines were added at 0 to 1250 μM calculated in concentrations of sulfasalazine. Two days later, cell viability was measured using a CellTiter-Glo (Promega).

One may read the solubility as the dissolved amount per volume that the medium holds. Consider `O=C(O)c1cc(/N=N/c2ccc(S(=O)(=O)Nc3ccccn3)cc2)ccc1O` [Sulfasalazine], for which the “tumor growth (tumor weight calculated from diameter)” value in series [1] is “significantly slower”. For the same molecule, the “cell viability, concentration dependence (cytotoxicity)” value in the series with T98G cell line is recorded as “substantially identical concentration dependence”. Also, the solubility in series [2] (pure water, water, read-out: Saturated solubility, pure water) was 50 µg/mL (≈ 126 µM); in series [2] (saline, saline or isotonic, read-out: Saturated solubility, saline), 37 µg/mL (≈ 92.9 µM).
